Reference: patent publication US4017611A, “Control of insects with 3-hydroxymethacrylic acid methyl ester dimethylthionophosphate” (priority 1970, dated 1977)

Tested on: adult houseflies
Test: Gas action against adult houseflies
Type: in vivo, Musca domestica (housefly)
Settings: 10 mg active substance, 2 liter glass cylinder
Description: Using a pipette 10 mg of active substance were placed on a watch glass which was then covered with a wire mesh and placed in a 2 liter glass cylinder. Immediately thereafter 30 houseflies were introduced into the container which was then sealed.
A comparative test between compound 1 and PHOSDRIN (Registered Trade Mark) carried out according to this method gave the following mortality periods in minutes for 10%, 50% and 100% kill of the test animals.

COC(=O)C(C)=COP(=S)(OC)OC [Compound I, 3-hydroxymethacrylic acid methyl ester dimethylthionophosphate]
Mortality time for 10% of the houseflies (10% kill): 5 min
Mortality time for 50% of the houseflies (50% kill): 6 min
Mortality time for 100% of the houseflies (100% kill): 25 min
